Key:
human TLR7 = human TLR7 (Homo sapiens (Human), UniProt Q9NYK1); experiment: Agonistic activity on human TLR7 in HEK-Blue hTLR7 stably transfected cells; assay type: cell-based; details: for EC50: OD 620 nm
Protocol: The activation effect of the compounds of the present invention on the hTLR7 protein expressed by the HEK-Blue™ hTLR7 stably transfected cells was determined by the following experimental method:
(§1) A bag of HEK-Blue detection dry powder was dissolved in 50 ml of water free of endotoxin, and the solution was then placed in an incubator at 37° C. for 10 minutes followed by sterile filtration to prepare a HEK-Blue detection medium. The compound was firstly formulated into a 20 mM stock solution, then diluted with pure DMSO to a maximum concentration of 6×10^6 nM, and a total of 10 points were obtained by a 3-fold gradient dilution.
(§2) The above formulated compound was firstly diluted 20-fold with the medium, then 20 μl of the diluted compound were added to each well. The supernate was removed from the HEK-Blue™ hTLR7 cells, to which 2-5 ml of pre-warmed PBS were then added. The cells were placed in an incubator for 1-2 minutes, gently pipetted, and counted by trypan blue staining. The cells were re-suspended in the HEK-Blue detection medium to adjust the concentration to 2.2×10^5 cells/ml. 180 μl of cells were added to the above 96-well plate already added with 20 μl of the compounds, and incubated at 37° C. for 6-16 hours.
The activation effect of the compounds of the present invention on human TLR7 can be determined by the above test, and the obtained EC50 values are shown in Table 1.

human TLR8 = human TLR8 (Homo sapiens (Human), UniProt Q9NR97); experiment: Agonistic activity on human TLR8 in HEK-Blue hTLR8 stably transfected cells; assay type: cell-based; details: for EC50: OD 620 nm
Protocol: The activation effect of the compounds of the present invention on the hTLR8 protein expressed by the HEK-Blue™ hTLR8 stably transfected cells was determined by the following experimental method:
as §1, with “dilution. The compound was firstly diluted 20-fold with the medium, then 20 μl of the diluted compound were added to each well.” for “dilution.”
as §2, with “The” for “The above formulated compound was firstly diluted 20-fold with the medium, then 20 μl of the diluted compound were added to each well. The”, “hTLR8” for “hTLR7”
The activation effect of the compounds of the present invention on human TLR8 can be determined by the above test, and the obtained EC50 values are shown in Table 2.

CYP3A4 [1] = target: T1, CYP3A4 (Homo sapiens (Human), UniProt P08684); experiment: Inhibition of the midazolam metabolite site of CYP3A4 in human liver microsomes; assay type: in vitro ADME; details: probe substrate midazolam
Protocol: The effect of the compounds of the present invention on the enzyme activity of midazolam metabolite site of CYP3A4 in human liver microsomes was determined by the following experimental method:
(§3) 100 mM PBS buffer was formulated, which was then used to formulate 2.5 mg/ml microsome solution and 5 mM NADPH solution. The 5× concentration of the compound working solution was diluted with PBS gradient (150, 50, 15, 5, 1.5, 0.15, 0.015, 0 μM). The 5× concentration of ketoconazole working solution was diluted with PBS gradient (150, 50, 15, 5, 1.5, 0.15, 0.015, 0 μM). Dextromethorphan working solution was diluted with PBS to a concentration of 50 μM.
(§4) 20 μl of 2.5 mg/ml microsome solution, 20 μl of 50 μM testosterone working solution, 20 μl of MgCl2 solution and 20 μl of the compound working solution (150, 50, 15, 5, 1.5, 0.15, 0.015, 0 μM, different reaction systems for each concentration) were taken respectively and mixed well. For the positive control group, the compound was replaced with the same concentration of ketoconazole. The mixture together with 5 mM NADPH solution were pre-incubated at 37° C. for 5 minutes. After 5 minutes, 20 μl of NADPH were added to each well, the reaction was started and incubated for 30 minutes. All the incubated samples were present in duplicate. After 30 minutes, 250 μl of acetonitrile containing internal standard were added to all samples, mixed well, shaken at 800 rpm for 10 minutes, and then centrifuged at 3700 rpm for 10 minutes. 80 μl of the supernatant were taken and analyzed by LC-MS/MS.
The data were calculated by Graphpad Prism to obtain the IC50 values of the compounds on the midazolam metabolite site of CYP3A4.

CYP2D6 = CYP2D6 (Homo sapiens (Human), UniProt P10635); experiment: Inhibition of the enzyme activity of CYP2D6 in human liver microsomes; assay type: in vitro ADME; details: probe substrate dextromethorphan
Protocol: The effect of the compounds of the present invention on the enzyme activity of CYP2D6 in human liver microsomes was determined by the following experimental method:
as §3, with “quinidine” for “ketoconazole”
as §4, with “quinidine.” for “ketoconazole.”
The data were calculated by Graphpad Prism to obtain the IC50 values of the compounds on the metabolite site of CYP2D6.

CYP3A4 [2] = target: T1, CYP3A4; experiment: Inhibition of the testosterone metabolite site of CYP3A4 in human liver microsomes; assay type: in vitro ADME; details: probe substrate testosterone
Protocol: The effect of the compounds of the present invention on the enzyme activity of testosterone metabolite site of CYP3A4 in human liver microsomes was determined by the following experimental method:
as §3, §4
The data were calculated by Graphpad Prism to obtain the IC50 values of the compounds on the testosterone metabolite site of CYP3A4.

Sequence of human TLR7 (Q9NYK1 27-1049): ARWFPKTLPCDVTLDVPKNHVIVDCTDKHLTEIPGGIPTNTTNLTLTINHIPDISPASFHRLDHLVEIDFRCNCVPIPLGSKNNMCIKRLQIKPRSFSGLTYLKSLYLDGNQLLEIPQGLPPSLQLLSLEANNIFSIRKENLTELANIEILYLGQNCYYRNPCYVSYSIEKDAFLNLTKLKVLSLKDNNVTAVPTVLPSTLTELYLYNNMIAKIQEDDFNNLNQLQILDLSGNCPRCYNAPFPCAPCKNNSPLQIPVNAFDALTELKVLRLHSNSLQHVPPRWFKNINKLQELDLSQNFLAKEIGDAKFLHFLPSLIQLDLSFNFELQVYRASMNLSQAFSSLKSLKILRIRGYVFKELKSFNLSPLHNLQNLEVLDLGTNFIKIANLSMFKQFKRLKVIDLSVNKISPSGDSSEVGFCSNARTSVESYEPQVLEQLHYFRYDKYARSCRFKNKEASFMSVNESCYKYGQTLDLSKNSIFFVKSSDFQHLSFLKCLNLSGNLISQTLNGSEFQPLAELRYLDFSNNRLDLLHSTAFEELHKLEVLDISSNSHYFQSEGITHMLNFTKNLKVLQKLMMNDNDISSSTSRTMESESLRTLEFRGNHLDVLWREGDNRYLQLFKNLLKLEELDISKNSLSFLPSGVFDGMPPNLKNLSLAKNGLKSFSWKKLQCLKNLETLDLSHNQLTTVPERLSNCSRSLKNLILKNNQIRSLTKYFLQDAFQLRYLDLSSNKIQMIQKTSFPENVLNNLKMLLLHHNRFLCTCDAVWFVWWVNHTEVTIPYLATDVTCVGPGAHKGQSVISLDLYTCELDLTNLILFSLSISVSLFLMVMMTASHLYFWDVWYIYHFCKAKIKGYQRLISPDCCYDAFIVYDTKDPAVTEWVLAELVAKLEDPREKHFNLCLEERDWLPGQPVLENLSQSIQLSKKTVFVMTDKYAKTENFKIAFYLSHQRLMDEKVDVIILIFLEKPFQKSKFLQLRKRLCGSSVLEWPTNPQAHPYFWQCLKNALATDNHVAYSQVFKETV
Sequence of CYP2D6 (P10635 whole entry): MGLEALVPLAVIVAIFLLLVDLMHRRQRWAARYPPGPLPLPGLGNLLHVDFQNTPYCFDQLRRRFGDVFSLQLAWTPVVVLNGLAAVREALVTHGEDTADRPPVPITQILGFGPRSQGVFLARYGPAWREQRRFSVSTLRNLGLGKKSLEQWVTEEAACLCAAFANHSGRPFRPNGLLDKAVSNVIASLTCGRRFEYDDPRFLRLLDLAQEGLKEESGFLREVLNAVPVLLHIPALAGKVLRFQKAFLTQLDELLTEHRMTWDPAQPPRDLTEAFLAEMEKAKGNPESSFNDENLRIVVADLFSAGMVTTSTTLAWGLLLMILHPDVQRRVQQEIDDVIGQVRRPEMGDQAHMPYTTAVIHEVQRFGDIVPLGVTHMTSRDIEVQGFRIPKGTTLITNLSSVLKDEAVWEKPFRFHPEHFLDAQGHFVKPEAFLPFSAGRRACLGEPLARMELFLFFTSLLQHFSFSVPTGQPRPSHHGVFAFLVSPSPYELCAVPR
T1 sequence (P08684 whole entry): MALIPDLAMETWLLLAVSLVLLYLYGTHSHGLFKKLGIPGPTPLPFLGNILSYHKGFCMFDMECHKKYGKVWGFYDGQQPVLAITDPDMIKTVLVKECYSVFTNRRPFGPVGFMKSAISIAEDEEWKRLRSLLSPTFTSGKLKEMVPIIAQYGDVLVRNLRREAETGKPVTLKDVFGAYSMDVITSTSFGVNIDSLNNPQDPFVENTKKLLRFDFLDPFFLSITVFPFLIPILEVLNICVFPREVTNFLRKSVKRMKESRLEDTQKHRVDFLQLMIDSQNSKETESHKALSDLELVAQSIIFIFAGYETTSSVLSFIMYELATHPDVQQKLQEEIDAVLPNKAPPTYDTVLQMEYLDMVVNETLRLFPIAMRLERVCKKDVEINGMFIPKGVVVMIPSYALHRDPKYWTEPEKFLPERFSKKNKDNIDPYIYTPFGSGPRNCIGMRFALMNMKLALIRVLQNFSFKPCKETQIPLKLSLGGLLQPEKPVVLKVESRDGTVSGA
Sequence of human TLR8 (Q9NR97 27-1041): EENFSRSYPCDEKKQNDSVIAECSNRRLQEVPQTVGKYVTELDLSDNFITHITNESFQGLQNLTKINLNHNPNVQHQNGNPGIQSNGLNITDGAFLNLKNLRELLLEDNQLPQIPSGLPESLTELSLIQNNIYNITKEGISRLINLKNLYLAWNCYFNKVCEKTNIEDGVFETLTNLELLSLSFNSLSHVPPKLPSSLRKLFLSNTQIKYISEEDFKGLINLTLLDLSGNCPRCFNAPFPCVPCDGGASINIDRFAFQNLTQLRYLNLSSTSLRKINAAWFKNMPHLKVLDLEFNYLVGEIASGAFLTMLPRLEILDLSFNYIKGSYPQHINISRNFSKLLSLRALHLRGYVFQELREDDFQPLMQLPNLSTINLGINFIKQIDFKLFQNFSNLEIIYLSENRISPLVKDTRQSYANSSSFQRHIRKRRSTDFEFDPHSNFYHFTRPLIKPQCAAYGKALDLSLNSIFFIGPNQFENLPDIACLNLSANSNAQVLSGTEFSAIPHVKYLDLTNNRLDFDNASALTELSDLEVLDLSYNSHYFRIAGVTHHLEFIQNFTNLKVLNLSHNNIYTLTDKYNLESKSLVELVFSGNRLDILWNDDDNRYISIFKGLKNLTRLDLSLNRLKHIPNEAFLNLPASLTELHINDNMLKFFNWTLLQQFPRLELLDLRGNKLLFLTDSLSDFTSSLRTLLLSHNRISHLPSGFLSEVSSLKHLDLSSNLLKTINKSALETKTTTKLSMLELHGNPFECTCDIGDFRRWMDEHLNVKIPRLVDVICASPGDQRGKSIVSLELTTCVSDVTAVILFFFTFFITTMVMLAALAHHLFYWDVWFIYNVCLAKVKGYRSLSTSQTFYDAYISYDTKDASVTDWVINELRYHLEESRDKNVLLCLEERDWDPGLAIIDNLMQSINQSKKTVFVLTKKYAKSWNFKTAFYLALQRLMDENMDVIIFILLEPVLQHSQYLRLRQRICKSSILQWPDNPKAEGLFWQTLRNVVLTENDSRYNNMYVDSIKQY

Structure (SMILES)	Emax (human TLR7) [%]	EC50 (human TLR7) [µM]	Emax (human TLR8) [%]	EC50 (human TLR8) [µM]	IC50 (CYP3A4 [1]) [µM]	IC50 (CYP2D6) [µM]	IC50 (CYP3A4 [2]) [µM]
CCCCOc1nc(N)c2cnn(Cc3ccc(CN4CCC4)cc3)c2n1 [Example 2, 1-(4-(Azetidin-1-ylmethyl)benzyl)-6-butoxy-1H-pyrazolo[3,4-d]pyrimidin-4-amine]	91	0.064	52	> 29	10	> 30	19
CCCCOc1nc(N)c2cnn(Cc3ccc(CN4CCCCC4)cc3)c2n1 [Example 3, 6-Butoxy-1-(4-(piperidin-1-ylmethyl)benzyl)-1H-pyrazolo[3,4-d]pyrimidin-4-amine]	91	0.077	2	> 24	7	4	3
CCCCOc1nc(N)c2cnn(Cc3cccc(CN4CCCC4)c3)c2n1 [Example 4, 6-Butoxy-1-(3-(pyrrolidin-1-ylmethyl)benzyl)-1H-pyrazolo[3,4-d]pyrimidin-4-amine]	88	0.166	28	> 30	11	16	6
COCCOc1nc(N)c2cnn(Cc3ccc(CN4CCCC4)cc3)c2n1 [Example 7, 6-(2-Methoxyethoxy)-1-(4-(pyrrolidin-1-ylmethyl)benzyl)-1H-pyrazolo[3,4-d]pyrimidin-4-amine]	95	0.18	0	> 30	> 30	> 30	> 30
